Here are results for 24 compounds from US20240279215A1 (Cytokinetics, Incorporated, priority 2022, published 2024).

This assay concerns the target human NAMPT (Homo sapiens (Human), UniProt P43490). As to the kind of experiment: NMN fluorescence biochemical assay (human recombinant NAMPT enzyme assay). In outline:
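NMN formed was detected by fluorescence (Ex/Em 355/460 nm) after acetophenone, KOH and formic acid derivatization. The cell-free reaction ran 60 min at ambient temperature with 6 nM human NAMPT, 150 μM nicotinamide, 20 μM PRPP, 2.5 mM ATP, pH 7.2 HEPES, and compound dose responses.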

human NAMPT, sequence (P43490 whole entry): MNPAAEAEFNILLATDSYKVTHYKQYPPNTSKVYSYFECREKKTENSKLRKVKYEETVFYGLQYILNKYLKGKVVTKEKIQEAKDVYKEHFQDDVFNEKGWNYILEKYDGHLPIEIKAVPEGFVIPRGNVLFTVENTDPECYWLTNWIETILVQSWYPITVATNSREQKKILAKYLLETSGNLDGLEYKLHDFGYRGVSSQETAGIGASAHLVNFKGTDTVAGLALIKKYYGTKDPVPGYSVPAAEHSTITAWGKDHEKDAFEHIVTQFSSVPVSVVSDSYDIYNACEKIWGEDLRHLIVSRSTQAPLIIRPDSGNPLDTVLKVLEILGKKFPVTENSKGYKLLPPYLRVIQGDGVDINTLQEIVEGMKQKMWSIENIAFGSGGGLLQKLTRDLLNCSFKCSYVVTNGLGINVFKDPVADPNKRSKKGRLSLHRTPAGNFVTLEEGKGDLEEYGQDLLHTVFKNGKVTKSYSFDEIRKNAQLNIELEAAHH

In general, EC50 refers to the concentration giving half of the maximal effect. `Cc1coc(C(=O)N(C)Cc2ccc(NC(=O)OCc3ccc(Cl)cc3)cc2)n1` [Compound 155, (4-chlorophenyl)methyl N-(4-{[N-methyl-1-(4-methyl-1,3-oxazol-2-yl)formamido]methyl}phenyl)carbamate]: the “AC1.4 Human” value is 1.31 µM and the 50% effective concentration (EC50) was found to be 5.8 µM.
As for `COC(=O)N1CCN(C(=O)Cc2ccc(NC(=O)OCc3ccc(Cl)cc3)cc2)CC1` [Compound 156, methyl 4-(2-(4-((((4-chlorobenzyl)oxy)carbonyl)amino)phenyl)acetyl)piperazine-1-carboxylate], the “AC1.4 Human” value came out at 1.31 µM and the EC50 stood at 9.45 µM.
Take `Cc1ncc(C(=O)NCc2ccc(NC(=O)OCc3ccc(Cl)cc3)cc2)o1` [Compound 157, (4-chlorophenyl)methyl N-(4-{[(2-methyl-1,3-oxazol-5-yl)formamido]methyl}phenyl)carbamate]: the “AC1.4 Human” value was determined as 1.32 µM and the EC50 worked out at 9.11 µM.
For `COc1ccc(C(=O)NCc2ccc(NC(=O)OCc3ccc(Cl)cc3)cc2)cn1` [Compound 158, (4-chlorophenyl)methyl N-(4-{[(6-methoxypyridin-3-yl)formamido]methyl}phenyl)carbamate] the same measures were 1.32 µM and 1.27 µM.
Turning to `C[C@H](NC(=O)c1cncc(F)c1)c1ccc(NC(=O)OCc2ccc(Cl)cc2)cc1` [Compound 159, (4-chlorophenyl)methyl N-{4-[(1S)-1-[(5-fluoropyridin-3-yl)formamido]ethyl]phenyl}carbamate], the “AC1.4 Human” value was found to be 1.33 µM and the EC50 was 4.3 µM.
On to `Cc1cc(C(=O)N(C)Cc2ccc(NC(=O)OCc3ccc(Cl)cc3)cc2)on1` [Compound 160, (4-chlorophenyl)methyl N-(4-{[N-methyl-1-(3-methyl-1,2-oxazol-5-yl)formamido]methyl}phenyl)carbamate], for which the “AC1.4 Human” value amounted to 1.33 µM and the EC50 was determined as 5.32 µM.
Consider `CO[C@H]1CCCN(C(=O)Cc2ccc(NC(=O)OCc3ccc(Cl)cc3)cc2)C1` [Compound 161, 4-chlorobenzyl (S)-(4-(2-(3-methoxypiperidin-1-yl)-2-oxoethyl)phenyl)carbamate], for which the “AC1.4 Human” value is 1.33 µM and the EC50 was 10.1 µM.
Taken in the same sequence, the figures for `COc1ncc(C(=O)NCc2ccc(NC(=O)OCc3ccc(Cl)cc3)cc2)cn1` [Compound 162, (4-chlorophenyl)methyl N-(4-{[(2-methoxypyrimidin-5-yl)formamido]methyl}phenyl)carbamate] were 1.36 µM and 4.5 µM.
In the case of `CC(C)c1ccc(C(=O)N[C@@H](C)c2ccc(NC(=O)OCc3ccc(Cl)cc3)cc2)cn1` [Compound 163, (4-chlorophenyl)methyl N-{4-[(1S)-1-[(6-isopropylpyridin-3-yl)formamido]ethyl]phenyl}carbamate], the “AC1.4 Human” value is 1.37 µM and the EC50 is 0.68 µM.
Taken in the same sequence, the figures for `C[C@H](NC(=O)c1ccc(C(F)F)nc1)c1ccc(NC(=O)OCc2ccc(Cl)cc2)cc1` [Compound 164, (4-chlorophenyl)methyl N-{4-[(1S)-1-{[6-(difluoromethyl)pyridin-3-yl]formamido}ethyl]phenyl}carbamate] were 1.38 µM and 1.6 µM.
Take `Cc1cc(C)c(C(=O)NCc2ccc(NC(=O)OCc3ccc(Cl)cc3)cc2)cn1` [Compound 165]: the “AC1.4 Human” value worked out at 1.38 µM and the EC50 amounted to 7.53 µM.
For `COCCn1nccc1C(=O)NCc1ccc(NC(=O)OCc2ccc(Cl)cc2)cc1` [Compound 166, (4-chlorophenyl)methyl N-[4-({[2-(2-methoxyethyl)pyrazol-3-yl]formamido}methyl)phenyl]carbamate], the “AC1.4 Human” value came to 1.38 µM and the EC50 was found to be 5.87 µM.
Consider `CCn1nccc1C(=O)NCc1ccc(NC(=O)OCc2ccc(Cl)cc2)cc1` [Compound 167, (4-chlorophenyl)methyl N-(4-{[(2-ethylpyrazol-3-yl)formamido]methyl}phenyl)carbamate], for which the “AC1.4 Human” value was determined as 1.39 µM and the EC50 is 4.54 µM.
As to `COc1ccc(COC(=O)Nc2ccc(CN3CCN(C)CC3=O)cc2)cc1` [Compound 168, (4-methoxyphenyl)methyl N-{4-[(4-methyl-2-oxopiperazin-1-yl)methyl]phenyl}carbamate], the “AC1.4 Human” value worked out at 1.40 µM and the EC50 was found to be 13.9 µM.
With `O=C(Nc1ccc(Cc2ccncc2)cc1)OCc1ccncc1` [Compound 169, pyridin-4-ylmethyl (4-(pyridin-4-ylmethyl)phenyl)carbamate], the “AC1.4 Human” value came out at 1.41 µM and the EC50 is 6.11 µM.
With `COC1CN(C(=O)N[C@@H](C)c2ccc(NC(=O)OCc3ccc(Cl)cc3)cc2)C1` [Compound 170, (4-chlorophenyl)methyl N-{4-[(1S)-1-(3-methoxyazetidine-1-carbonylamino)ethyl]phenyl}carbamate], the “AC1.4 Human” value worked out at 1.41 µM and the EC50 stood at 9.33 µM.
For `O=C(Nc1ccc(CC(=O)N2CCC[C@H](O)C2)cc1)OCc1ccc(Cl)cc1` [Compound 171, 4-chlorobenzyl (S)-(4-(2-(3-hydroxypiperidin-1-yl)-2-oxoethyl)phenyl)carbamate], the “AC1.4 Human” value is 1.43 µM and the EC50 is 9.75 µM.
On to `O=C(Nc1ccc(Cc2cccnc2)cc1)OCc1ccc(Cl)cc1` [Compound 172, 4-chlorobenzyl (4-(pyridin-3-ylmethyl)phenyl)carbamate], for which the “AC1.4 Human” value was found to be 1.43 µM and the EC50 was found to be 3.54 µM.
Consider `Cc1cc(C(=O)NCc2ccc(NC(=O)OCc3ccc(Cl)cc3)cc2)ccn1` [Compound 173, (4-chlorophenyl)methyl N-(4-{[(2-methylpyridin-4-yl)formamido]methyl}phenyl)carbamate], for which the “AC1.4 Human” value was 1.46 µM and the EC50 stood at 4.39 µM.
As to `COc1ccc(COC(=O)Nc2ccc(CN3CCOCC3=O)cc2)cc1` [Compound 174, (4-methoxyphenyl)methyl N-{4-[(3-oxomorpholin-4-yl)methyl]phenyl}carbamate], the “AC1.4 Human” value was 1.47 µM and the EC50 is 28 µM.
On to `O=C(Nc1ccc(CNC(=O)c2cncnc2)cc1)OCc1ccc(Cl)cc1` [Compound 175, (4-chlorophenyl)methyl N-{4-[(pyrimidin-5-ylformamido)methyl]phenyl}carbamate], for which the “AC1.4 Human” value is 1.47 µM and the concentration for a half-maximal effect (EC50) was 8.92 µM.
In the case of `CCc1ncoc1C(=O)N(C)Cc1ccc(NC(=O)OCc2ccc(Cl)cc2)cc1` [Compound 176, (4-chlorophenyl)methyl N-(4-{[1-(4-ethyl-1,3-oxazol-5-yl)-N-methylformamido]methyl}phenyl)carbamate], the “AC1.4 Human” value stood at 1.47 µM and the EC50 was 4.56 µM.
With `CC(C)(O)CN1CCN(Cc2ccc(NC(=O)OCc3ccc(Cl)cc3)cc2)CC1` [Compound 177, 4-chlorobenzyl (4-((4-(2-hydroxy-2-methylpropyl)piperazin-1-yl)methyl)phenyl)carbamate], the “AC1.4 Human” value stood at 1.49 µM and the EC50 worked out at 38.3 µM.
For `CN1CCN(C(=O)Cc2ccc(NC(=O)OCc3ccc(Cl)cc3)cc2)C2CC21` (stereo not drawn) [Compound 178, 4-chlorobenzyl (4-(2-(5-methyl-2,5-diazabicyclo[4.1.0]heptan-2-yl)-2-oxoethyl)phenyl)carbamate] the same measures were 1.50 µM and 14.7 µM.
